Laboratory results as given in US8800906B2, “Use of transforming growth factor-beta neutralizing antibodies and fusion proteins thereof in treating pain” (The Board of Trustees of the Leland Stanford Junior …, priority 2010, dated 2014).

Assays:
[1] = system: rat DRG neurons; assay: Whole-cell patch-clamp excitability of cultured DRG neurons; assay type: cell-based
Description: Dorsal Root Ganglia (DRG) neurons culture. Adult Sprague-Dawley rats (120-150 g) were sacrificed by decapitation. Thoracic and lumbar DRGs were then bilaterally dissected out and transferred to ice-cold Minimal Essential Medium (Gibco, Grand Island, N.Y.) supplemented with penicillin-streptomycin (2×, Gibco, Grand Island, N.Y.). After trimming axons and connective tissue, ganglia were transferred into enzyme solution, i.e., Hank's Balanced Salt Solution containing 5 mg/ml collagenase (Type 2, Worthington, Lakewood, N.J.), and incubated for three hours at 5% CO2-95% O2 37° C. A pellet was subsequently obtained by repeated trituration through flame-polished glass pipettes and centrifuged at 50×g for 10 minutes. Single cells were resuspended and plated onto poly-1-ornithine (Sigma) coated coverslips with neurobasal media (Gibco) supplemented with albumin solution (0.7%, Sigma), penicillin-streptomycin (2×), B27 with retinoic acid (2×, Invitrogen), beta-mercaptoethanol (0.11 mM, Gibco), mouse nerve growth factor ([…], Promega, Madison, Wis.) and L-glutamine (2×, Gibco). Recombinant TGF-β1 and TGF-β2 (Calbiochem, cat #616455, PF017) were dissolved in 10% ethanol in phosphate buffered saline (PBS) to yield a stock concentration of 10 ng/μl. TGF-β1 or TGF-β2 (10 ng/ml) was added to cultures at the beginning of incubation at 37° C. 5% CO2-95% O2.
(§1) Electrophysiology. Whole-cell voltage patch-clamp recordings were conducted at room temperature (22-23° C.) on the stage of an inverted phase contrast microscope (Nikon Inc., Melville, N.Y.). The recording pipettes were pulled from borosilicate glass to give final resistances of […]. Data were acquired with Digidata interface (1200 series, Axon Instruments) and pClamp software (version 9.1, Axon Instruments). The concentrations of the electrode solutions (in mM) used in these experiments were as follows: for recording action potential, K^+ current and non-selective cationic current (pH adjusted to 7.3-7.4 using KOH): potassium gluconate (115), KCl (25), NaCl (5), HEPES (10), CaCl (1), EGTA (1.12) and ATP-Mg (2); for recording Na^+ current (pH adjusted to 7.3-7.4 using NaOH): CsF (110), MgCl2 (5), EGTA (11), NaCl (10) and HEPES (10). The cells were bathed in modified Tyrode saline consisting of (in mM): NaCl (135), KCl (5.4), MgCl2 (1), CaCl2 (2), NaH2PO3 (0.1), HEPES (10) and glucose (10). The osmolality was maintained at 280-300 mOsm for the intracellular electrolyte and 300-330 mOsm for the extracellular bath solution. […] Action potentials were recorded in mode of I-clamp after observed membrane potential setting at I=0, and the currents were recorded by switching mode to v-clamp. The current signals were recorded to disk for off-line analysis using pCLAMP fit and Origin 7. Results were expressed as means±SE, n=number of cells.

[2] = system: DRG neurons; assay: Patch-clamp excitability of DRG neurons from transgenic mice lacking glial TGF-β receptor response; assay type: cell-based, mouse
Text: Transgenic mice. To decrease the response to TGF-β specifically in astrocytes, we took advantage of a dominant negative mutation in the type II TGF-β receptor that has been cloned into a bidirectional doxycycline-regulatable element (bi-tetO) that also drives enhanced green fluorescent protein (GFP). Andrews, Z. B. et al., 2006 Neurobiol Dis. 21, 568-75. TetO-TBR2-DN mice were obtained from Jackson Laboratories, Bar Harbor, Me. This line was crossed to a GFAP-tTA transgenic line (Jackson Laboratories). This line confers expression of tetO transgenes to astrocytes in the absence of doxycycline, and is induced by injuries, including stroke. DRGs were dissected from these mice and cultured as above.
(§2) Electrophysiology. Whole-cell voltage patch-clamp recordings were conducted at room temperature (22-23° C.) on the stage of an inverted phase contrast microscope (Nikon Inc., Melville, N.Y.). The recording pipettes were pulled from borosilicate glass to give final resistances of […]. Data were acquired with Digidata interface (1200 series, Axon Instruments) and pClamp software (version 9.1, Axon Instruments). The concentrations of the electrode solutions (in mM) used in these experiments were as follows: for recording action potential, K^+ current and non-selective cationic current (pH adjusted to 7.3-7.4 using KOH): potassium gluconate (115), KCl (25), NaCl (5), HEPES (10), CaCl (1), EGTA (1.12) and ATP-Mg (2); for recording Na^+ current (pH adjusted to 7.3-7.4 using NaOH): CsF (110), MgCl2 (5), EGTA (11), NaCl (10) and HEPES (10). The cells were bathed in modified Tyrode saline consisting of (in mM): NaCl (135), KCl (5.4), MgCl2 (1), CaCl2 (2), NaH2PO3 (0.1), HEPES (10) and glucose (10). The osmolality was maintained at 280-300 mOsm for the intracellular electrolyte and 300-330 mOsm for the extracellular bath solution. Agents such as capsaicin, capsazepine, TEA, 4AP, TTX etc were delivered through a valve control system (BPS-4, Scientific Instrument, New York). Prior to patch clamping a cell, the amplifier (Axopatch 200B, Axon Instruments, CA, USA) was zeroed so that any junction potential was balanced by an offset potential. High resistance (Gigaohm) seals were formed between the recording electrode and cell membrane and ruptured by suction using standard patch clamp recording methods. Action potentials were recorded in mode of I-clamp after observed membrane potential setting at I=0, and the currents were recorded by switching mode to v-clamp. The current signals were recorded to disk for off-line analysis using pCLAMP fit and Origin 7. Results were expressed as means±SE, n=number of cells.

[3] = system: Kv channels; assay: Voltage-dependent K+ currents in DRG neurons; assay type: cell-based, rat
Description: as §2
TGF-β influences K^+ and Na^+ channel activity (FIGS. 6 and 7). Voltage-dependent potassium (Kv) currents play a fundamental role in determining neuronal excitability. […]

[4] = system: sodium channel; assay: Sodium channel currents in DRG neurons; assay type: cell-based, rat
Description: as §1, with “(10).” for “(10). The osmolality was maintained at 280-300 mOsm for the intracellular electrolyte and 300-330 mOsm for the extracellular bath solution.”, “cells. […]” for “cells.”

[5] = biological target: T1, TRPV1 (Rattus norvegicus, UniProt O35433); assay: Capsaicin-induced inward current in DRG neurons; assay type: cell-based
T1 construct: endogenous in cells; host or cells: primary rat DRG neurons
T1 sequence (O35433 whole entry): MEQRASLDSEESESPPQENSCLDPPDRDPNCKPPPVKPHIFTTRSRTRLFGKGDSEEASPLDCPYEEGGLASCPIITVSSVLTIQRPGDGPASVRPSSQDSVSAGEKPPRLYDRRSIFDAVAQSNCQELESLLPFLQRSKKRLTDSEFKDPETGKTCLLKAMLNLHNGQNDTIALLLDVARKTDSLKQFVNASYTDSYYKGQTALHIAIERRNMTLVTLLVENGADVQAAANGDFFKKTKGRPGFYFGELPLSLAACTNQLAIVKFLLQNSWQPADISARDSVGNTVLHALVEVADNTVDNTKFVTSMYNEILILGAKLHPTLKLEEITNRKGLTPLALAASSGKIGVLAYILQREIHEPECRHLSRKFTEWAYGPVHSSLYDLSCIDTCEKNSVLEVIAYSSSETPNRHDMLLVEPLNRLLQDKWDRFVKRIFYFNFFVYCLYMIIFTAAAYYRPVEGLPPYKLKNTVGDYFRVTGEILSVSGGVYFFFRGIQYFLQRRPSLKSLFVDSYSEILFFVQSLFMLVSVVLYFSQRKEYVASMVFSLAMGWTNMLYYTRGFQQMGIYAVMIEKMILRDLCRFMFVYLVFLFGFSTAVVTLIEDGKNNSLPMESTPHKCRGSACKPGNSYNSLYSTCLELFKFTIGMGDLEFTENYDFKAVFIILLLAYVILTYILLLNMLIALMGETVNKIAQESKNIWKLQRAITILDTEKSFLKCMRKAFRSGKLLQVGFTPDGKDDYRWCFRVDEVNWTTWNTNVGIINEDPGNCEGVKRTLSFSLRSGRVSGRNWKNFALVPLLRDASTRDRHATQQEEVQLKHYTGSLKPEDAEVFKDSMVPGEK
Description: as §1, with “(10).” for “(10). The osmolality was maintained at 280-300 mOsm for the intracellular electrolyte and 300-330 mOsm for the extracellular bath solution.”, “cells. […]” for “cells.”

[6] = system: SMAD3; settings: cited from earlier work
[7] = system: TGF-β1, TGF-β2, and TGF-β3; settings: cited from earlier work
[8] = biological target: T2, SMAD3 (Rattus norvegicus, UniProt P84025); assay: Excitability of DRG neurons with TGF-β and SIS3; assay type: cell-based; settings: SIS3 3 μM
T2 construct: endogenous in cells; host or cells: primary DRG neurons
T2 sequence (P84025 whole entry): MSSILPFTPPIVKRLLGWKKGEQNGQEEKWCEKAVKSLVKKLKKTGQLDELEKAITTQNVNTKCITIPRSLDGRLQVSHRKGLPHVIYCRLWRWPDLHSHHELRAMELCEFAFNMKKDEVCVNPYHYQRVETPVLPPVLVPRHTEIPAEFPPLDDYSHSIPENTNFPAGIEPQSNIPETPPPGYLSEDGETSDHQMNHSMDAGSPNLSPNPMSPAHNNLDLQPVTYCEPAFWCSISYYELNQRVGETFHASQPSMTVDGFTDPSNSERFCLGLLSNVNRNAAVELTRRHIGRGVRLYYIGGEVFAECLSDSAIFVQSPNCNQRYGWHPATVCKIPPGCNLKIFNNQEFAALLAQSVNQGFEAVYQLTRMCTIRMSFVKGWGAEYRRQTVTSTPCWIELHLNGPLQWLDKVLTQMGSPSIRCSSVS
Description: SIS3 was dissolved in DMSO and diluted in culture media that was added at the time of plating with a final concentration of 3 μM. After one hour, the culture wells received TGF-β1 (0.2 ng/ml) for further incubation. Most cells were patched at 12-24 h, and both agents were refreshed daily if incubated for over 24 h.

[9] = biological target: SMAD3 (Homo sapiens, UniProt P84022); settings: cited from earlier work
Chain of SMAD3 (Homo sapiens, UniProt P84022) (P84022 whole entry, the tested form may be a part): as the sequence (P84025 whole entry) above

[10] = system: conscious rats; assay: Nocifensive behaviors to electrical stimulation of the pancreas after intrapancreatic infusion of TGF-β; assay type: in vivo; settings: intra-pancreatic infusion, 400 ng per rat
Description: Intrapancreatic infusion of TGF-β. Rats were anesthetized with sodium nembutal (Abbott Laboratories, Chicago, Ill.) (50 mg/kg body weight, i.p.). The peritoneum was incised to expose the duodenum, and the duodenal loop was pulled out. The pancreatic duct entering the duodenum was identified under dissecting microscope, and a small niche was made into the duct with a 30-gauge needle. A polyethylene 10 tubing (0.61 mm outer diameter) (Becton Dickinson and Company, Franklin Lakes, N.J.) was guided into the duct and tied to secure its position. The position of the tube in the pancreatic duct was confirmed by observing bile flowing through the tubing. The common bile duct was ligated close to the liver to prevent entry of the injected substance into the liver. Similarly the duct was ligated near its entry into the duodenum. Four hundred μl (0.4 ml) per rat of 400 ng of TGF-β1 or TGF-β2 in 10% ethanol in phosphate buffered saline (PBS) or vehicle alone was injected through a syringe connected to the tubing. The tubing was carefully removed and bile flow from the liver into the duodenum was re-established. The abdominal cavity was closed with sutures and rats allowed to recover.
Behavioral Studies of Rats with Chronic Pancreatitis. […] The number of nocifensive behaviors observed during 5 min of stimulation period was counted. […]

[11] = system: spinal cord laminae I/II FOS positive cells; assay: FOS immunochemistry in spinal cord after intrapancreatic TGF-β infusion and electrical stimulation; assay type: in vivo, rat; settings: intra-pancreatic infusion 400 ng followed by ES
Description: FOS Immunochemistry. Eight rats were used for this experiment (TGF-β n=4; Vehicle n=4). TGF-β2 (400 ng) in 0.4 ml of 10% ETOH/PBS or vehicle alone were infused into pancreatic duct of rats. 24 hours later rats underwent noxious electrical stimulation of the pancreas (5 mA for 5 minutes). Thirty minutes later the rats were transcardially perfused with 150 ml of normal saline followed by ice cold 400 ml of 4% paraformaldehyde in 0.1M phosphate buffer (PB) pH 7.4. Spinal cord segments corresponding to DRG T8-T10 were identified, cut and post-fixed in 4% paraformaldehyde over night. The samples were then transferred to 30% sucrose in 0.1 M PB for 24 hours at 4° C. followed by freezing on dry ice with optimum cutting temperature (OCT). Frozen serial coronal sections (35 μm) were cut on a cryostat, collected in separate wells of a 24-well plate and stored floating in antifreeze at −20° C. We processed a total of 6 sections per segment. The sections were stained with a rabbit polyclonal primary antiserum directed against FOS (ab7963, Abcam, Cambridge Mass.), diluted (1:2000) in PB saline containing 3% normal goat serum and 0.1% Triton X-100, for 24 h at 4° C. […] The number of FOS positive cells in spinal cord laminae I/II were counted under 40× magnification from 6 slices per individual spinal segment per animal by two blinded investigators.

For TGF-β, the “resting membrane potential (RMP)” value ([1]; rat DRG cultures exposed to TGF-β, n=21) was −48.8±7.6 mV, the “proportion of tested cells showing multiple action potentials” value ([1]; rat DRG neurons) was 43% and the “current pulse (rheobase) required for triggering an action potential” value ([1]; rat DRG neurons, n=11) was 0.15±0.09 nA. For the same molecule, the “number of action potentials evoked by two times rheobase current stimulation” value ([1]; rat DRG neurons, n=17) was 2.75 Hz, the RMP ([2]; transgenic mouse DRG preparations, 10 ng/ml) was −49.7±5.5 mV and the “tested neurons showing an absence of IA current” value ([3]; TGF-β treated neurons) was 11 of 22. The Itotal density ([3]; all Kv channels, DRG neurons in culture) was “did not result in a significant reduction”, the IA density ([3]; at +30 mV, n=10) was 29.6±3.8 pA/pF and the “density of TTXR current” value ([4]; n=7) was 114.25±27.32. The “density of total INa” value ([4]; n=23) was 216.12±15.01 and the capsaicin induced current ([5]; neurons treated with TGF-β, n=17) was 724.7±129.4 pA.

For `NC(=O)c1ccc(-c2nc(-c3ccc4c(c3)OCO4)c(-c3ccccn3)[nH]2)cc1` [SB431542], the Smad3 phosphorylation [6] is listed as “selective inhibition of Smad3 phosphorylation”.

In the case of “GC1008: humanized TGF-β-neutralizing monoclonal antibody”, the “neutralization of TGF-β ligands/isoforms” value [7] is given as “capable of neutralizing all three TGF-β isoforms”.

With `Cc1cc2c(cc1C)CN(C(=O)/C=C/c1c(-c3ccccc3)n(C)c3ncccc13)CC2.Cl` [SIS3] the “decrease in RMP induced by TGFβ” value ([8]; TGF-β 10 ng/ml, 48 hours) was “prevented the decrease in RMP”, the “TGF-β1 induced changes in frequency of action potentials at 2× rheobase current” value ([8]; TGF-β1 0.2 ng/ml) was “attenuate” and the “TGF-β1 induced changes in resting membrane potential (RMP)” value ([8]; TGF-β1 0.2 ng/ml) was “attenuate”. For the same molecule, the “TGF-β1 induced changes in rheobase” value ([8]; TGF-β1 0.2 ng/ml) was “attenuate”, the “production of extracellular matrix” value ([9]; TGF-β1-treated normal fibroblasts and scleroderma fibroblasts) was “blocked excessive production of extracellular matrix” and the Smad3 phosphorylation [9] was “suppresses Smad3 phosphorylation”.

In the case of `Oc1cc2c(cc1O)CN(C(=S)NCCc1ccc(Cl)cc1)CCC2` [capsazepine, reference compound], the “effect on capsaicin-induced inward current” value ([5]; middle sized neurons) is reported as “suppressible”.

For TGF-β1: Recombinant TGF-β1 (Calbiochem), the “behavioral response to noxious stimulation (electric stimulation, ES)” value [10] was “hyperalgesic behavioral response”, the rheobase ([2]; transgenic mouse DRG) was 0.03 nA and the firing threshold ([2]; transgenic mouse DRG, n=7) was −35 mV. The spikes ([2]; transgenic mouse DRG, n=7) was 2.8±1.5.

B1: TGF-β2: Recombinant TGF-β2 (Calbiochem) (protein, UniProt P61812 303-414, looked up)
Transforming growth factor …: ALDAAYCFRNVQDNCCLRPLYIDFKRDLGWKWIHEPKGYNANFCAGACPYLWSSDTQHSRVLSLYNTINPEASASPCCVSQDLEPLTILYYIGKTPKIEQLSNMIVKSCKCS
modifications: Transforming growth factor beta-2
With B1 the “behavioral response to noxious stimulation (electric stimulation, ES)” value [10] was “hyperalgesic behavioral response” and the “FOS expression in the spinal cord” value [11] was “greater FOS expression”.
